Earlier results on 21 compounds are cited in patent US7604823B2, “Synergistic HIV/AIDS and/or immune disease phyto-nutraceutical composition” (priority 2006, dated 2009).

“Also recorded” adds a separate entry of the source.

Series [1] has as its system HIV. The settings on record: after administration, no antiretroviral medications.
Another series has as its target HIV-1 PR (Human immunodeficiency virus type 1 group M subtype B, UniProt P04585).
The test system of series [2] is bacterial resistance mechanism (multidrug pump). The settings on record: in the presence of 5′-MHC.
For series [3], the target named is HIV-1 reverse transcriptase (Human immunodeficiency virus type 1 group M subtype B, UniProt P04585).
Series [4] deals with HIV-1.
The test system of series [5] is HIV-1 LTR-directed gene expression. The conditions noted are these: concentrations that have minor effects on cells.
In series [6] the test system is cells either acutely or chronically infected with HIV-1. The conditions noted are these: cells acutely or chronically infected with HIV-1.
Series [7] has as its system HIV. The settings on record: human, in vivo.
Series [8] deals with HIV-1. The conditions noted are these: prolonged period.
The subject of series [9] is HIV-1-infected cells (CEM/LAV-1).
For series [10], the system named is HIV.

On to `C=C1CC[C@@H]2[C@](C)(CO)[C@H](O)CC[C@@]2(C)[C@@H]1C/C=C1/C(=O)OC[C@H]1O` [andrographolide], for which the “mean CD4(+) lymphocyte level of HIV subjects” value in the series on HIV [1] is listed as “significant rise”.
As to `C/C(=C\CC[C@@H](C)[C@H]1CC(=O)[C@@]2(C)C3=C(C(=O)C[C@]12C)[C@@]1(C)CC[C@H](O)C(C)(C)[C@@H]1C[C@@H]3O)C(=O)O` [Ganoderic acid beta], the “inhibition of HIV-1 protease” value on HIV-1 PR is “significant”.
For `COc1cc([C@H]2Oc3cc(-c4cc(=O)c5c(O)cc(O)cc5o4)cc(OC)c3O[C@@H]2CO)ccc1O` (racemic) [5′-MHC, 5′-methoxyhydnocarpin], in series [2], the “accumulation of berberine in the cells” value is “strong increase”.
In the case of `C[C@H](CCC=C(CO)CO)[C@H]1C[C@H](O)[C@@]2(C)C3=CC[C@H]4C(C)(C)C(=O)CC[C@]4(C)C3=CC[C@]12C` [ganoderiol B], the “inhibition of HIV-1 protease” value at HIV-1 PR was “moderately active”.
Consider `CC(CC(=O)C[C@@H](C)[C@H]1CC(=O)[C@@]2(C)C3=C(C(=O)C[C@]12C)[C@@]1(C)CC[C@H](O)C(C)(C)[C@@H]1C[C@@H]3O)C(=O)O` (stereo partly drawn) [ganoderic acid B], for which the “inhibition of HIV-1 protease” value on HIV-1 PR is “moderately active”.
As to `COc1ccc2cc3[n+](cc2c1OC)CCc1cc2c(cc1-3)OCO2` [Berberine], the “inhibition of HIV-1 reverse transcriptase” value in series [3] is recorded as “inhibits”.
For `C[C@H](CC[C@H](O)[C@](C)(O)CO)[C@H]1CC[C@@]2(C)C3=CC[C@H]4C(C)(C)C(=O)CC[C@]4(C)C3=CC[C@]12C` [ganodermanontriol], in the series with HIV-1 [4], the “activity as anti-HIV-1 agents” value was “active”. On HIV-1 PR, the “inhibition of HIV-1 protease” value is reported as “significant”.
As for `CC(CC(=O)C[C@@H](C)[C@H]1C[C@H](O)[C@@]2(C)C3=C(C(=O)C[C@]12C)[C@@]1(C)CCC(=O)C(C)(C)[C@@H]1CC3)C(=O)O` (stereo partly drawn) [ganolucidic acid A], on HIV-1 PR, the “inhibition of HIV-1 protease” value is “significant”.
For `CC(=O)O[C@@H]1C(=O)C2=C(C(=O)C[C@H]3C(C)(C)[C@@H](O)CC[C@]23C)[C@]2(C)C(=O)C[C@H]([C@H](C)CC(=O)CC(C)C(=O)O)[C@@]12C` (stereo partly drawn) [ganoderic acid H], the “inhibition of HIV-1 protease” value at HIV-1 PR is “moderately active”.
Take `CC1(C)CCC2=C(O1)c1ccccc1C(=O)C2=O` [beta-lapachone]: in [5], the “inhibition of HIV-1 LTR-directed gene expression” value is “potent and selective inhibitor”. Besides, the p24 antigen production result in [6] is given as “inhibited”.
`O=c1[nH]cnc2c1ncn2[C@H]1CC[C@@H](CO)O1` [ddI, didanosine]: the “mean change of CD4 cells/mm3” value in the series on HIV [7] is “decrease”.
In the case of `CO[C@@H]1C=C2[C@@H]3CC[C@H]([C@H](C)C=C[C@H](C)C(C)C)[C@@]3(C)CC[C@@H]2[C@@]2(C)CC[C@H](O)C[C@]12O` [3 beta-5 alpha-dihydroxy-6beta-methoxyergosta-7,22-diene], on HIV-1 PR, the “inhibition of HIV-1 protease” value was “moderately active”.
On to `C[C@H](CC[C@H](O)C(C)(O)CO)[C@H]1CC[C@@]2(C)C3=CC[C@H]4C(C)(C)[C@@H](O)CC[C@]4(C)C3=CC[C@]12C` (stereo partly drawn) [ganoderiol A], for which, at HIV-1 PR, the “inhibition of HIV-1 protease” value was “moderately active”.
In the case of `C[C@H](CC(=O)C[C@@H](C)[C@H]1CC(=O)[C@@]2(C)C3=C(C(=O)C[C@]12C)[C@@]1(C)CCC(=O)C(C)(C)[C@@H]1C[C@@H]3O)C(=O)O` [ganoderic acid C1], on HIV-1 PR, the “inhibition of HIV-1 protease” value is given as “moderately active”.
For `Cc1cn([C@H]2C[C@H](N=[N+]=[N-])[C@@H](CO)O2)c(=O)[nH]c1=O` [ZDV, zidovudine], the “CD4+ T cell counts” value in the series on HIV-1 [8] is “decreased”.
Turning to `C[C@H](CC[C@H](O)C(C)(C)O)[C@H]1CC[C@@]2(C)C3=CC[C@H]4C(C)(C)C(=O)CC[C@]4(C)C3=CC[C@]12C` [ganodermanondiol], on HIV-1 PR, the “inhibition of HIV-1 protease” value is given as “significant”.
For the compound `C[C@H](CCC=C(CO)CO)[C@H]1CC[C@@]2(C)C3=CC[C@H]4C(C)(C)C(=O)CC[C@]4(C)C3=CC[C@]12C` [Ganoderiol F], in the series with HIV-1 [4], the “activity as anti-HIV-1 agents” value was “active”.
Take `C=CCO` [allyl alcohol]: the “cell proliferation of HIV-1-infected cells” value in series [9] is listed as “strongly depressed; also recorded: completely inhibited”.
Turning to `C=CCSSCC=C` [Allyl disulfide], in [9], the “cell proliferation of HIV-1-infected cells” value was “strongly depressed”.
Consider `CC(=O)OC1C(=O)C2=C(C(=O)CC3C(C)(C)[C@@H](O)CC[C@]23C)[C@]2(C)[C@H](O)C[C@H]([C@H](C)CC(=O)CC(C)C(=O)O)[C@@]12C` (stereo partly drawn) [ganoderic acid alpha], for which the “inhibition of HIV-1 protease” value at HIV-1 PR is “moderately active”.
As to lentinan, the tolerability entry in the series with HIV [10] (HIV-positive patients) is “good tolerability”. For the same compound, the CD4 cells result in the series on HIV [10] (human, in vivo) is “trend toward increases”.
